Measured values taken from paper PMC9228535, “Antistaphylococcal Activities and ADME-Related Properties of Chlorinated Arylcarbamoylnaphthalenylcarbamates” (Pharmaceuticals, 2022).
≈ marks a conversion by molar mass, not a printed value. Where two headings read alike, the source gives them in different places.

Columns and labels:
[1] = test system: S. aureus and MRSA isolates; assay: Antistaphylococcal MIC, summary over strains; type: cell-based, Staphylococcus aureus; details: Staphylococcus aureus, read-out: MICs
Experimental: All the investigated compounds were screened for in vitro antibacterial activity against the reference and quality control strain Staphylococcus aureus ATCC 29213 and clinical isolates of methicillin-resistant S. aureus (MRSA) 63718, SA 630, and SA 3202 [14]. Activities are expressed as the minimum inhibitory concentrations (MICs), see Table 2. In addition to the MICs, the minimum bactericidal concentrations (MBCs) were also determined. […] MBC values that meet this requirement, i.e., the compound is bactericidal, are indicated in bold in Table 2.
(§1) In vitro antibacterial activity of the synthesized compounds was evaluated against representatives of multidrug-resistant bacteria, three clinical isolates of methicillin-resistant S. aureus: clinical isolate of animal origin, MRSA 63718 (Department of Infectious Diseases and Microbiology, Faculty of Veterinary Medicine, University of Veterinary Sciences Brno, Czech Republic), carrying the mecA gene; and MRSA SA 630 [46] and MRSA SA 3202 [46] (National Institute of Public Health, Prague, Czech Republic), both of human origin. Suspected colonies were confirmed by PCR; a 108bp fragment specific for S. aureus was detected. All isolates were tested for the presence of the mecA gene encoding methicillin resistance. […] Vancomycin-susceptible methicillin-susceptible S. aureus (VS-MSSA) ATCC 29213, obtained from the American Type Culture Collection, was used as the reference and quality control strain. Enterococcus faecalis ATCC 29212 was obtained from the American Type Culture Collection and used as the reference and quality control strain.
The minimum inhibitory concentrations (MICs) were evaluated by the microtitration broth method according to the CLSI [64, 65] with some modifications. […]

[2] = Stability of ethyl carbamate by HPLC (decomposition rate, half-life); type: physicochemical; details: buffer, read-out: half-life τ0,5 (converted)
Experimental: The minimum inhibitory concentrations (MICs) were evaluated by the microtitration broth method according to the CLSI [64, 65] with some modifications. The compounds were dissolved in DMSO (Sigma, St. Louis, MO, USA) to get a concentration […] and diluted in a microtitration plate in an appropriate medium, namely, Cation Adjusted Mueller–Hinton (CaMH, Oxoid, Basingstoke, UK) for staphylococci (S. aureus ATCC 29213, clinical isolates of MRSA 63718, SA 630, and SA 3202) and brain heart infusion (BHI, Oxoid) for E. faecalis ATCC 29212, to reach the final concentration of 256-0.125 µg/mL. The plate was inoculated by the tested microorganisms. The final concentration of bacterial cells was 10^5 for bacteria. Ampicillin (Sigma) was used as reference drugs. A drug-free control and a sterility control were included. The plates were incubated for 24 h at 37 °C for staphylococci and E. faecalis ATCC 29212 (stability evaluation of the carbamates, see Supplementary materials, Table S1). […] The experiments were repeated three times. […]
evaluate of ethyl carbamate stability. A chromatographic column XTerra® Phenyl 3.5 μm, 100 × 4.6 mm (Waters Corp., Milford, MA, USA) was used. The HPLC separation process was monitored by ChemStation for LC 3D systems (Agilent Technologies). Isocratic elution by a mixture of acetonitrile (HPLC grade, 60.0%) and phosphate buffer, pH 2.5 (40%) as a mobile phase was used. The total flow of the column was 1.0 mL/min, injection 20 μL, the time of analysis was 8 min, column temperature 40 °C, and sample temperature 10 °C. The detection wavelength of 254 nm was chosen. The retention time (tR) of carbamate 2 was 4.92 ± 0.05 min and of the pattern anilide 3.12 ± 0.05 min.
Table S1. Ethyl carbamate 2 decomposition rate and half-life values.

MRSA 63718 [3] = assay: MBC, agar aliquot subculture method; type: cell-based; details: Staphylococcus aureus, MRSA
Experimental: (§2) All the investigated compounds were screened for in vitro antibacterial activity against the reference and quality control strain Staphylococcus aureus ATCC 29213 and clinical isolates of methicillin-resistant S. aureus (MRSA) 63718, SA 630, and SA 3202 [14]. Activities are expressed as the minimum inhibitory concentrations (MICs), see Table 2. In addition to the MICs, the minimum bactericidal concentrations (MBCs) were also determined.
(§3) For the S. aureus and MRSA isolates, the agar aliquot subculture method was used as a test for bactericidal agents. After the MIC value determination, the inoculum was transferred to Mueller–Hinton (Oxoid) agar using a multipoint inoculator. The plates were incubated in a thermostat at 37 °C for 24 h. The lowest concentration of test compound at which ≤5 colonies were obtained was then evaluated as MBC, corresponding to a 99.9% decrease in CFU relative to the original inoculum.

[4] = test system: Staphylococcus aureus ATCC 29213; assay: MBC, agar aliquot subculture method; type: cell-based; details: ATCC29213
Experimental: as §2, §3

MRSA SA 630 [5] = assay: MBC, agar aliquot subculture method; type: cell-based; details: Staphylococcus aureus
Experimental: as §2, §3

MRSA SA 3202 [6] = assay: MBC, agar aliquot subculture method; type: cell-based; details: Staphylococcus aureus
Experimental: as §2, §3

MRSA 63718 [7] = assay: MIC, microtitration broth method; type: cell-based; details: Staphylococcus aureus, MRSA, 24 h
Experimental: as §2, §1
(§4) The minimum inhibitory concentrations (MICs) were evaluated by the microtitration broth method according to the CLSI [64, 65] with some modifications. The compounds were dissolved in DMSO (Sigma, St. Louis, MO, USA) to get a concentration […] and diluted in a microtitration plate in an appropriate medium, namely, Cation Adjusted Mueller–Hinton (CaMH, Oxoid, Basingstoke, UK) for staphylococci (S. aureus ATCC 29213, clinical isolates of MRSA 63718, SA 630, and SA 3202) and brain heart infusion (BHI, Oxoid) for E. faecalis ATCC 29212, to reach the final concentration of 256-0.125 µg/mL. The plate was inoculated by the tested microorganisms. The final concentration of bacterial cells was 10^5 for bacteria. Ampicillin (Sigma) was used as reference drugs. A drug-free control and a sterility control were included. The plates were incubated for 24 h at 37 °C for staphylococci and E. faecalis ATCC 29212 (stability evaluation of the carbamates, see Supplementary materials, Table S1). […] The experiments were repeated three times.

[8] = test system: Staphylococcus aureus ATCC 29213; assay: MIC, microtitration broth method; type: cell-based; details: ATCC29213, 24 h
Experimental: as §2, §1, §4

MRSA SA 630 [9] = assay: MIC, microtitration broth method; type: cell-based; details: Staphylococcus aureus, 24 h
Experimental: as §2, §1, §4

MRSA SA 3202 [10] = assay: MIC, microtitration broth method; type: cell-based; details: Staphylococcus aureus, 24 h
Experimental: as §2, §1, §4

CCNC(=O)Oc1c(C(=O)Nc2cc(Cl)c(Cl)cc2Cl)ccc2ccccc12 [Compound 2, 2-[N-(2,4,5-Trichlorophenyl)carbamoyl]naphthalen-1-yl ethyl carbamate]
MIC [1]: 0.018 to 0.064 µM (≈ 0.00788 to 0.028 µg/mL) | half-life ([2]; pH 6): 50.1 days | half-life ([2]; pH 7): 23.2 days | half-life ([2]; pH 8): 9.12 days | MBC (MRSA 63718 [3]): 0.286 µM (≈ 0.125 µg/mL) | MBC [4]: 0.018 µM (≈ 0.00788 µg/mL) | MBC (MRSA SA 630 [5]): 0.144 µM (≈ 0.063 µg/mL) | MBC (MRSA SA 3202 [6]): 0.073 µM (≈ 0.032 µg/mL) | MIC (MRSA 63718 [7]): 0.144 µM (≈ 0.063 µg/mL) | MIC [8]: 0.018 µM (≈ 0.00788 µg/mL) | MIC (MRSA SA 630 [9]): 0.018 µM (≈ 0.00788 µg/mL) | MIC (MRSA SA 3202 [10]): 0.018 µM (≈ 0.00788 µg/mL)
